Measured values published in PubChem BioAssay (NCI).
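Five concentrations, 48 hours, 96-well plates. GI50 = concentration required for 50% inhibition of growth. TGI is the concentration that stops growth completely.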

Tests used:
Assay in all cases: NCI tumour cell line growth inhibition, 48 h
[1] = system: SF-539 CNS
[2] = system: NCI-H226 lung
[3] = system: M14 melanoma
[4] = system: UACC-62 melanoma
[5] = system: UACC-257 melanoma
[6] = system: M19-MEL melanoma
[7] = system: DU-145 prostate
[8] = system: SF-295 CNS
[9] = system: MALME-3M melanoma
[10] = system: K-562 leukemia
[11] = system: SK-OV-3 ovarian
[12] = system: UO-31 renal
[13] = system: SR leukemia
[14] = system: BT-549 breast
[15] = system: SNB-78 CNS
[16] = system: HOP-18 NSCLC
[17] = system: RPMI-8226 leukemia
[18] = system: COLO 205 colon
[19] = system: SW-620 colon
[20] = system: PC-3 prostate
[21] = system: MCF7 breast
[22] = system: A498 renal
[23] = system: HS 578T breast
[24] = system: OVCAR-5 ovarian
[25] = system: HCT-15 colon
[26] = system: OVCAR-3 ovarian
[27] = system: OVCAR-4 ovarian
[28] = system: 786-0 renal
[29] = system: CAKI-1 renal
[30] = system: HOP-92 NSCLC
[31] = system: IGROV1 ovarian
[32] = system: OVCAR-8 ovarian
[33] = system: A549 NSCLC
[34] = system: SNB-75 CNS
[35] = system: LOX IMVI melanoma
[36] = system: SN12C renal
[37] = system: NCI-H460 lung
[38] = system: LXFL 529 NSCLC
[39] = system: MDA-MB-231 breast
[40] = system: SF-268 CNS
[41] = system: HL-60(TB) leukemia
[42] = system: U251 CNS
[43] = system: SK-MEL-2 melanoma
[44] = system: XF 498 CNS
[45] = system: SK-MEL-5 melanoma
[46] = system: T-47D breast
[47] = system: HCT-116 colon
[48] = system: MOLT-4 leukemia
[49] = system: DMS 114 small cell lung
[50] = system: DMS 273 small cell lung
[51] = system: SK-MEL-28 melanoma
[52] = system: HCC-2998 colon
[53] = system: KM20L2 colon
[54] = system: RXF 393 renal
[55] = system: MDA-MB-435
[56] = system: NCI-H23 lung
[57] = system: SNB-19 CNS
[58] = system: HOP-62 NSCLC
[59] = system: EKVX NSCLC
[60] = system: ACHN renal
[61] = system: NCI-H522 lung
[62] = system: NCI/ADR-RES ovarian
[63] = system: TK-10 renal
[64] = system: KM12 colon
[65] = system: CCRF-CEM leukemia
[66] = system: HT29 colon

Which results are given for `O=c1[nH]cnc2n[nH]nc12`?
TGI [1]: 23.9 µM; TGI [2]: > 66.1 µM; TGI [3]: 30.8 µM; TGI [4]: 6.8 µM; TGI [5]: > 100 µM; TGI [6]: > 79.9 µM; GI50 [7]: 2.89 µM; TGI [7]: > 100 µM; TGI [8]: > 53.4 µM; TGI [9]: 46.4 µM; TGI [10]: > 100 µM; TGI [11]: > 25.2 µM; TGI [12]: > 100 µM; TGI [13]: > 52.7 µM; GI50 [14]: 2.65 µM; TGI [14]: > 100 µM; TGI [15]: 56.7 µM; TGI [16]: > 100 µM; TGI [17]: > 65.9 µM; TGI [18]: > 100 µM; TGI [19]: > 100 µM; GI50 [20]: 5.99 µM; TGI [20]: > 100 µM; GI50 [21]: 24 µM; TGI [21]: > 100 µM; TGI [22]: > 100 µM; GI50 [23]: 6.11 µM; TGI [23]: > 100 µM; TGI [24]: > 100 µM; TGI [25]: > 100 µM; TGI [26]: 63.8 µM; TGI [27]: > 84.8 µM; TGI [28]: > 100 µM; TGI [29]: > 100 µM; TGI [30]: > 100 µM; TGI [31]: > 100 µM; TGI [32]: > 100 µM; TGI [33]: > 100 µM; TGI [34]: > 69.8 µM; TGI [35]: > 49 µM; TGI [36]: > 100 µM; TGI [37]: > 69.7 µM; TGI [38]: > 100 µM; GI50 [39]: 1.67 µM; TGI [39]: > 100 µM; TGI [40]: > 94.3 µM; TGI [41]: > 56.4 µM; TGI [42]: > 100 µM; TGI [43]: 32 µM; TGI [44]: 83.5 µM; TGI [45]: > 100 µM; GI50 [46]: 3.49 µM; TGI [46]: > 100 µM; TGI [47]: 28.3 µM; TGI [48]: 98.4 µM; TGI [49]: 56.1 µM; TGI [50]: > 100 µM; TGI [51]: > 61.6 µM; TGI [52]: > 74.7 µM; TGI [53]: > 100 µM; TGI [54]: 14.4 µM; GI50 [55]: 0.448 µM; TGI [55]: > 100 µM; TGI [56]: > 100 µM; TGI [57]: > 100 µM; TGI [58]: > 100 µM; TGI [59]: > 100 µM; TGI [60]: > 100 µM; TGI [61]: 53.3 µM; GI50 [62]: 0.472 µM; TGI [62]: > 100 µM; TGI [63]: > 100 µM; TGI [64]: > 100 µM; TGI [65]: > 100 µM; TGI [66]: > 100 µM
